Like-named read-outs stand apart in the source and are kept apart here.
Target: T1, indoleamine 2,3-dioxygenase (IDO) (Homo sapiens, UniProt P14902)
T1 construct: media containing IFNγ (#285-IF/CF, R&D Systems) at a final concentration of 25 ng/mL; endogenous in cells; host or cells: HeLa (ATCC CCL-2), induced with IFN-gamma
Test: HeLa cell-based indoleamine 2,3-dioxygenase (IDO) assay
Settings: HeLa cells with IFNγ 25 ng/mL, 48 hour incubation, kynurenine production
Experimental: Assessment of Inhibitor Activity in HeLa Cell-Based Indoleamine 2,3-Dioxygenase (IDO) Assay.
HeLa (ATCCR CCL-2) cells were obtained from the ATCC® and cultured in Dulbecco's Modified Eagle Medium supplemented with 4.5 g/L glucose, […] L-glutamine and […] (#10-013-CV, Corning), 2 mM L-alanyl-L-glutamine dipeptide (#35050-061, Gibco), 100U/mL penicillin, 100 µg/mL streptomycin (#SV30010, HyClone) and 10% fetal bovine serum (#SH30071.03 HyClone). Cells were maintained in a humidified incubator at 37° C. in 5% CO2.
IDO activity was assessed as a function of kynurenine production as follows: HeLa cells were seeded in a 96-well culture plate at a density of 5,000 cells/well and allowed to equilibrate overnight. After 24 hours, the media was aspirated and replaced with media containing IFNγ (#285-IF/CF, R&D Systems) at a final concentration of 25 ng/mL. A serial dilution of each test compound was added to the cells in a total volume of 200 μL of culture medium. After a further 48 hour incubation, 170 μL of supernatant was transferred from each well to a fresh 96-well plate. 12.1 μL of 6. IN trichloroacetic acid (#T0699, Sigma-Aldrich) was added to each well and mixed, followed by incubation at 65° C. for 20 minutes to hydrolyze N-formylkynurenine, the product of indoleamine 2,3-dioxygenase, to kynurenine. The reaction mixture was then centrifuged for 10 mins at 500×g to sediment the precipitate. 100 μL of the supernatant was transferred from each well to a fresh 96-well plate. 100 μl of 2% (w/v) p-dimethylaminobenzaldehyde (#15647-7, Sigma-Aldrich) in acetic acid (#A6283, Sigma-Aldrich) was added to each well mixed and incubated at room temperature for 20 mins. Kynurenine concentrations were determined by measuring absorbance at 480 nm and calibrating against an L-kynurenine (#K8625, Sigma-Aldrich) standard curve using a SPECTRAMAX® M2e microplate reader (Molecular Devices). The percentage activity at each inhibitor concentration was determined and IC50 values assessed using nonlinear regression.

[1] = read-out: IDO Hela IC50 potency class (A < 50, B < 250, C < 2000)

T1 sequence (P14902 whole entry): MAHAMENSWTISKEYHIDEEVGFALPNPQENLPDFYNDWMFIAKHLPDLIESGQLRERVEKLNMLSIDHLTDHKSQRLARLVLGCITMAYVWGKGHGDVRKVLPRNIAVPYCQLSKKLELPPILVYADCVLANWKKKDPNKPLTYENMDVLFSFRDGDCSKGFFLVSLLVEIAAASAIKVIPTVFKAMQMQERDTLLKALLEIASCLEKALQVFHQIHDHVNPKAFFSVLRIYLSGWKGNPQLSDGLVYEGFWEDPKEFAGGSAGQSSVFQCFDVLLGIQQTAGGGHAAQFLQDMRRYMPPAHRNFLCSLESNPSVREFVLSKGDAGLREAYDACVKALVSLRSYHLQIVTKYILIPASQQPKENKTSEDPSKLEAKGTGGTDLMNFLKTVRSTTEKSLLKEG

SMILES | IC50 (read-out: IDO Hela IC50) [nM] | IC50 [1] [nM]
CCOc1ncc(Nc2cc([C@H](CC)CC(=O)O)ccc2-c2ccc3nc(C)sc3c2)cn1 (single isomer, unassigned) [Example 68] | 500 | –
COC[C@H](CC(=O)O)c1ccc(-c2ccc3c(c2)OCO3)c(Nc2ccc(C#N)cc2)c1 (single isomer, unassigned) [Example 38] | 50 | –
CC[C@H](CC(=O)O)c1ccc(-c2cnn(C)c2)c(Nc2ccc(Cl)cc2F)c1 (single isomer, unassigned) [Example 2] | 10 | –
CCOc1ncc(Nc2cc([C@H](CC)CC(=O)O)ccc2-c2ccoc2)cn1 (single isomer, unassigned) [Example 46] | 40 | –
CC[C@@H](CC(=O)O)c1ccc(C2CCN(C(=O)OC(C)(C)C)CC2)c(Nc2cnc(C)nc2)c1 (single isomer, unassigned) [Example 28] | 760 | –
CC[C@H](CC(=O)O)c1ccc(-c2cnn(C)c2)c(Nc2ccc(C#N)cn2)c1 (single isomer, unassigned) [Example 16] | ≥ 1000 | 250 to 2000
CCOc1cnc(-c2ccc([C@H](CC)CC(=O)O)cc2Nc2cnc(OCC)nc2)cn1 (single isomer, unassigned) [Example 74] | 450 | –
CCOc1ncc(Nc2cc([C@H](CC)CC(=O)O)ccc2-c2c(C)n[nH]c2C)cn1 (single isomer, unassigned) [Example 75] | ≥ 1000 | 250 to 2000
CCOc1ncc(Nc2cc([C@H](CC)CC(=O)O)ccc2-c2cccc(C(F)F)n2)cn1 (single isomer, unassigned) [Example 66] | 750 | –
CCOc1ncc(Nc2cc([C@H](CC)CC(=O)O)ccc2-c2ccc3cncn3c2)cn1 (single isomer, unassigned) [Example 85] | ≥ 1000 | 250 to 2000
CC[C@H](CC(=O)O)c1ccc(-c2cnn(C)c2)c(Nc2ccc(Cl)cc2)c1 (single isomer, unassigned) [Example 4] | 10 | –
CCOc1ncc(Nc2cc([C@H](CC)CC(=O)O)ccc2-c2cn3ccccc3n2)cn1 (single isomer, unassigned) [Example 77] | ≥ 1000 | 250 to 2000
CC[C@H](CC(=O)O)c1ccc(-c2nc(C)cs2)c(Nc2ccc(Cl)cc2)c1 (single isomer, unassigned) [Example 19] | ≥ 1000 | 250 to 2000
CC[C@H](CC(=O)O)c1ccc(-c2nccs2)c(Nc2ccc(Cl)cc2)c1 (single isomer, unassigned) [Example 21] | ≥ 1000 | 250 to 2000
CCOc1ncc(Nc2cc([C@H](CC)CC(=O)O)ccc2-c2cnn(-c3ccc(F)cc3)c2)cn1 (single isomer, unassigned) [Example 48] | 340 | –
CC[C@H](CC(=O)O)c1ccc(-c2cnn(C)c2)c(Nc2cccnc2)c1 (single isomer, unassigned) [Example 11] | ≥ 1000 | 250 to 2000
CC[C@H](CC(=O)O)c1ccc(-c2cnn(C)c2)c(Nc2cccc(Cl)c2)c1 (single isomer, unassigned) [Example 7] | ≥ 1000 | 250 to 2000
COC[C@H](CC(=O)O)c1ccc(-c2cnn(Cc3ccc(OC)cc3)c2)c(Nc2ccc(C#N)cc2)c1 (single isomer, unassigned) [Example 45] | 50 | –
CCOc1ncc(Nc2cc([C@H](CC)CC(=O)O)ccc2-c2nc(-c3ccccc3)cs2)cn1 (single isomer, unassigned) [Example 87] | ≥ 1000 | 250 to 2000
CCc1ncc(Nc2cc([C@@H](CC)CC(=O)O)ccc2C2CCN(C(=O)OC(C)(C)C)CC2)cn1 (single isomer, unassigned) [Example 31] | 20 | –
CCOc1ncc(Nc2cc([C@H](CC)CC(=O)O)ccc2-c2nnc(C)s2)cn1 (single isomer, unassigned) [Example 89] | 400 | –
CC[C@@H](CC(=O)O)c1ccc(C2CCN(C(=O)OC(C)(C)C)CC2)c(Nc2ccc(C#N)cc2)c1 (single isomer, unassigned) [Example 32] | – | < 50
